According to ChEMBL document CHEMBL1201862, “PubChem BioAssay data set” (2004):
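Briefly, cells in 96-well plates were exposed to five compound concentrations for 48 h, and endpoints were estimated by linear interpolation. Abbreviation: GI50, concentration required for 50% inhibition of growth.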 Activity calls are given as the source filed them. Rule as the data show it: active = GI50 up to about 1.1 µM and inactive = higher.

Columns and labels:
Assay in all cases: DTP human tumour cell line panel, 48 h
MDA-N = tested on: MDA-N
OVCAR-3 = tested on: OVCAR-3
SK-OV-3 = tested on: SK-OV-3
Malme-3M = tested on: Malme-3M
K562 = tested on: K562
KM12 = tested on: KM12
DU-145 = tested on: DU-145
OVCAR-4 = tested on: OVCAR-4
ACHN = tested on: ACHN
NCI-H23 = tested on: NCI-H23
SK-MEL-28 = tested on: SK-MEL-28
IGROV-1 = tested on: IGROV-1
U-251 = tested on: U-251
SR = tested on: SR
786-0 = tested on: 786-0
OVCAR-5 = tested on: OVCAR-5
A549 = tested on: A549
SN12C = tested on: SN12C
CCRF-CEM = tested on: CCRF-CEM
SF-295 = tested on: SF-295
NCI-H226 = tested on: NCI-H226
TK-10 = tested on: TK-10
RPMI-8226 = tested on: RPMI-8226
HOP-62 = tested on: HOP-62
T47D = tested on: T47D
COLO 205 = tested on: COLO 205
SK-MEL-5 = tested on: SK-MEL-5
HCC 2998 = tested on: HCC 2998
LOX IMVI = tested on: LOX IMVI
HT-29 = tested on: HT-29
BT-549 = tested on: BT-549
RXF 393 = tested on: RXF 393
SW-620 = tested on: SW-620
HCT-15 = tested on: HCT-15
M14 = tested on: M14
PC-3 = tested on: PC-3
MDA-MB-231 = tested on: MDA-MB-231
MCF7 = tested on: MCF7
OVCAR-8 = tested on: OVCAR-8
A498 = tested on: A498
NCI-H460 = tested on: NCI-H460
NCI/ADR-RES = tested on: NCI/ADR-RES
UACC-62 = tested on: UACC-62
SNB-75 = tested on: SNB-75
HCT-116 = tested on: HCT-116
NCI-H522 = tested on: NCI-H522
SF-268 = tested on: SF-268
Hs-578T = tested on: Hs-578T
HOP-92 = tested on: HOP-92
UO-31 = tested on: UO-31
EKVX = tested on: EKVX
SK-MEL-2 = tested on: SK-MEL-2
CAKI-1 = tested on: CAKI-1
SNB-19 = tested on: SNB-19
MOLT-4 = tested on: MOLT-4
UACC-257 = tested on: UACC-257
MDA-MB-435 = tested on: MDA-MB-435

For Cc1c(C)c(S(=O)(=O)N(CCCN)OCCCN)c(C)c2c1OC(C)(C)CC2, the GI50 (MDA-N) was 15.8 µM (inactive), the GI50 (OVCAR-3) was 15 µM (inactive) and the GI50 (SK-OV-3) was 15.4 µM (inactive). The GI50 (Malme-3M) was 13.6 µM (inactive), the GI50 (K562) was 15.2 µM (inactive) and the GI50 (KM12) was 12.4 µM (inactive). The GI50 (DU-145) was 16 µM (inactive), the GI50 (OVCAR-4) was 8.17 µM (inactive) and the GI50 (ACHN) was 16.1 µM (inactive). The GI50 (NCI-H23) was 14.5 µM (inactive), the GI50 (SK-MEL-28) was 15.2 µM (inactive) and the GI50 (IGROV-1) was 7.78 µM (inactive). The GI50 (U-251) was 11.9 µM (inactive), the GI50 (SR) was 17.5 µM (inactive) and the GI50 (786-0) was 15.9 µM (inactive). For the same compound, the GI50 (OVCAR-5) was 13 µM (inactive), the GI50 (A549) was 15.6 µM (inactive) and the GI50 (SN12C) was 15.1 µM (inactive). The GI50 (CCRF-CEM) was 10.2 µM (inactive), the GI50 (SF-295) was 16.3 µM (inactive) and the GI50 (NCI-H226) was 13.4 µM (inactive). For the same compound, the GI50 (TK-10) was 14.7 µM (inactive), the GI50 (RPMI-8226) was 17.6 µM (inactive) and the GI50 (HOP-62) was 13.3 µM (inactive). The GI50 (T47D) was 16.9 µM (inactive), the GI50 (COLO 205) was 17.5 µM (inactive) and the GI50 (SK-MEL-5) was 15.6 µM (inactive). For the same compound, the GI50 (HCC 2998) was 4.14 µM (inactive), the GI50 (LOX IMVI) was 13.3 µM (inactive) and the GI50 (HT-29) was 15.1 µM (inactive). The GI50 (BT-549) was 17.5 µM (inactive), the GI50 (RXF 393) was 9.04 µM (inactive) and the GI50 (SW-620) was 15.1 µM (inactive). For the same compound, the GI50 (HCT-15) was 15.8 µM, the GI50 (M14) was 14.3 µM (inactive) and the GI50 (PC-3) was 12 µM (inactive). For the same compound, the GI50 (MDA-MB-231) was 4.63 µM (inactive), the GI50 (MCF7) was 15.4 µM (inactive) and the GI50 (OVCAR-8) was 16.3 µM (inactive). The GI50 (A498) was 12.9 µM (inactive), the GI50 (NCI-H460) was 15.8 µM (inactive) and the GI50 (NCI/ADR-RES) was 25.7 µM (inactive). The GI50 (UACC-62) was 14.8 µM (inactive), the GI50 (SNB-75) was 11.3 µM (inactive) and the GI50 (HCT-116) was 16.5 µM (inactive). The GI50 (NCI-H522) was 14 µM (inactive), the GI50 (SF-268) was 13.3 µM (inactive) and the GI50 (Hs-578T) was 14.8 µM (inactive). For the same compound, the GI50 (HOP-92) was 7.5 µM (inactive), the GI50 (UO-31) was 17.5 µM (inactive) and the GI50 (EKVX) was 16.7 µM (inactive). For the same compound, the GI50 (SK-MEL-2) was 17.5 µM (inactive), the GI50 (CAKI-1) was 16.5 µM (inactive) and the GI50 (SNB-19) was 11.8 µM (inactive). For the same compound, the GI50 (MOLT-4) was 4.61 µM (inactive), the GI50 (UACC-257) was 13.7 µM (inactive) and the GI50 (MDA-MB-435) was 15.8 µM (inactive).
